# Data from patent publication US8680012B2, “4-phenyl-pyrane-3,5-diones,4-phenyl-thiopyrane-3,6-diones and cyclohexanetriones as novel herbicides” (Syngenta Crop Protection LLC, priority 2006, dated 2014).
# Tested on: Solanum nigrum (SOLNI)
# Assay: Example B pre-emergence herbicidal activity, glasshouse pot test
# Format: in vivo
# Settings: 312 h, rate 1000 g/ha, evaluated after 13 days, read-out: Pre-emergence activity SOLNI (100=total damage to plant; 0=no damage to plant)
# Procedure, shortened: (§1)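 Damage rating, 0–100, at 13 d after application. Spray solution: a.i. in acetone/water (50:50), 0.5% Tween 20. Applied 1 d after sowing or at 8 d growth; pots held at 24/16 °C, 14 h light, 65% humidity.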
row,Compound,pest or weed control at 1000 g/ha
1,CCc1ccc(-c2ccc(Cl)cc2)cc1C1=C(OC(=O)OC)C(C)(C)OC(C)(C)C1=O [Compound D-16],0%
2,CCc1ccc(-c2ccc(Cl)cc2)cc1C1=C(OC(=O)OC(C)C)C(C)(C)OC(C)(C)C1=O [Compound D-17],0%
3,CCc1ccc(-c2ccc(Cl)cc2)cc1C1=C(OC(=O)C(C)OC)C(C)(C)OC(C)(C)C1=O [Compound D-19],0%
4,CCc1ccc(-c2ccc(Cl)cc2)cc1C1=C(OC(=O)C(C)(C)OC)C(C)(C)OC(C)(C)C1=O [Compound D-20],0%

# Tested on: Amaranthus retroflexus (AMARE)
# Assay: as above
# Format: in vivo
# Settings: 312 h, rate 1000 g/ha, evaluated after 13 days, read-out: Pre-emergence activity AMARE (100=total damage to plant; 0=no damage to plant)
# Procedure, shortened: as §1
row,Compound,pest or weed control at 1000 g/ha
1,CCc1ccc(-c2ccc(Cl)cc2)cc1C1=C(OC(=O)OC)C(C)(C)OC(C)(C)C1=O [Compound D-16],0%
2,CCc1ccc(-c2ccc(Cl)cc2)cc1C1=C(OC(=O)OC(C)C)C(C)(C)OC(C)(C)C1=O [Compound D-17],0%
3,CCc1ccc(-c2ccc(Cl)cc2)cc1C1=C(OC(=O)C(C)OC)C(C)(C)OC(C)(C)C1=O [Compound D-19],0%
4,CCc1ccc(-c2ccc(Cl)cc2)cc1C1=C(OC(=O)C(C)(C)OC)C(C)(C)OC(C)(C)C1=O [Compound D-20],0%

# Tested on: Alopecurus myosuroides (ALOMY)
# Assay: as above
# Format: in vivo
# Settings: 312 h, rate 1000 g/ha, evaluated after 13 days, read-out: Pre-emergence activity ALOMY (100=total damage to plant; 0=no damage to plant)
# Procedure, shortened: as §1
row,Compound,pest or weed control at 1000 g/ha
1,CCc1ccc(-c2ccc(Cl)cc2)cc1C1=C(OC(=O)OC)C(C)(C)OC(C)(C)C1=O [Compound D-16],50%
2,CCc1ccc(-c2ccc(Cl)cc2)cc1C1=C(OC(=O)OC(C)C)C(C)(C)OC(C)(C)C1=O [Compound D-17],20%
3,CCc1ccc(-c2ccc(Cl)cc2)cc1C1=C(OC(=O)C(C)OC)C(C)(C)OC(C)(C)C1=O [Compound D-19],70%
4,CCc1ccc(-c2ccc(Cl)cc2)cc1C1=C(OC(=O)C(C)(C)OC)C(C)(C)OC(C)(C)C1=O [Compound D-20],30%

# Tested on: Avena fatua (AVEFA)
# Assay: as above
# Format: in vivo
# Settings: 312 h, rate 1000 g/ha, evaluated after 13 days, read-out: Pre-emergence activity AVEFA (100=total damage to plant; 0=no damage to plant)
# Procedure, shortened: as §1
row,Compound,pest or weed control at 1000 g/ha
1,CCc1ccc(-c2ccc(Cl)cc2)cc1C1=C(OC(=O)OC)C(C)(C)OC(C)(C)C1=O [Compound D-16],0%
2,CCc1ccc(-c2ccc(Cl)cc2)cc1C1=C(OC(=O)OC(C)C)C(C)(C)OC(C)(C)C1=O [Compound D-17],0%
3,CCc1ccc(-c2ccc(Cl)cc2)cc1C1=C(OC(=O)C(C)OC)C(C)(C)OC(C)(C)C1=O [Compound D-19],20%
4,CCc1ccc(-c2ccc(Cl)cc2)cc1C1=C(OC(=O)C(C)(C)OC)C(C)(C)OC(C)(C)C1=O [Compound D-20],0%

# Tested on: Setaria faberi (SETFA)
# Assay: as above
# Format: in vivo
# Settings: 312 h, rate 1000 g/ha, evaluated after 13 days, read-out: Pre-emergence activity SETFA (100=total damage to plant; 0=no damage to plant)
# Procedure, shortened: as §1
row,Compound,pest or weed control at 1000 g/ha
1,CCc1ccc(-c2ccc(Cl)cc2)cc1C1=C(OC(=O)OC)C(C)(C)OC(C)(C)C1=O [Compound D-16],100%
2,CCc1ccc(-c2ccc(Cl)cc2)cc1C1=C(OC(=O)OC(C)C)C(C)(C)OC(C)(C)C1=O [Compound D-17],90%
3,CCc1ccc(-c2ccc(Cl)cc2)cc1C1=C(OC(=O)C(C)OC)C(C)(C)OC(C)(C)C1=O [Compound D-19],100%
4,CCc1ccc(-c2ccc(Cl)cc2)cc1C1=C(OC(=O)C(C)(C)OC)C(C)(C)OC(C)(C)C1=O [Compound D-20],90%

# Tested on: Echinochloa crus-galli (ECHCG)
# Assay: as above
# Format: in vivo
# Settings: 312 h, rate 1000 g/ha, evaluated after 13 days, read-out: Pre-emergence activity ECHCG (100=total damage to plant; 0=no damage to plant)
# Procedure, shortened: as §1
row,Compound,pest or weed control at 1000 g/ha
1,CCc1ccc(-c2ccc(Cl)cc2)cc1C1=C(OC(=O)OC)C(C)(C)OC(C)(C)C1=O [Compound D-16],90%
2,CCc1ccc(-c2ccc(Cl)cc2)cc1C1=C(OC(=O)OC(C)C)C(C)(C)OC(C)(C)C1=O [Compound D-17],80%
3,CCc1ccc(-c2ccc(Cl)cc2)cc1C1=C(OC(=O)C(C)OC)C(C)(C)OC(C)(C)C1=O [Compound D-19],100%
4,CCc1ccc(-c2ccc(Cl)cc2)cc1C1=C(OC(=O)C(C)(C)OC)C(C)(C)OC(C)(C)C1=O [Compound D-20],60%

# Tested on: Solanum nigrum (SOLNI)
# Assay: Example B post-emergence herbicidal activity, glasshouse pot test
# Format: in vivo
# Settings: 312 h, rate 1000 g/ha, evaluated after 13 days, read-out: Post-emergence activity SOLNI (100=total damage to plant; 0=no damage to plant)
# Procedure, shortened: as §1
row,Compound,pest or weed control at 1000 g/ha
1,CCc1ccc(-c2ccc(Cl)cc2)cc1C1=C(OC(=O)OC)C(C)(C)OC(C)(C)C1=O [Compound D-16],0%
2,CCc1ccc(-c2ccc(Cl)cc2)cc1C1=C(OC(=O)OC(C)C)C(C)(C)OC(C)(C)C1=O [Compound D-17],0%
3,CCc1ccc(-c2ccc(Cl)cc2)cc1C1=C(OC(=O)C(C)OC)C(C)(C)OC(C)(C)C1=O [Compound D-19],0%
4,CCc1ccc(-c2ccc(Cl)cc2)cc1C1=C(OC(=O)C(C)(C)OC)C(C)(C)OC(C)(C)C1=O [Compound D-20],0%

# Tested on: Amaranthus retroflexus (AMARE)
# Assay: as above
# Format: in vivo
# Settings: 312 h, rate 1000 g/ha, evaluated after 13 days, read-out: Post-emergence activity AMARE (100=total damage to plant; 0=no damage to plant)
# Procedure, shortened: as §1
row,Compound,pest or weed control at 1000 g/ha
1,CCc1ccc(-c2ccc(Cl)cc2)cc1C1=C(OC(=O)OC)C(C)(C)OC(C)(C)C1=O [Compound D-16],0%
2,CCc1ccc(-c2ccc(Cl)cc2)cc1C1=C(OC(=O)OC(C)C)C(C)(C)OC(C)(C)C1=O [Compound D-17],10%
3,CCc1ccc(-c2ccc(Cl)cc2)cc1C1=C(OC(=O)C(C)OC)C(C)(C)OC(C)(C)C1=O [Compound D-19],0%
4,CCc1ccc(-c2ccc(Cl)cc2)cc1C1=C(OC(=O)C(C)(C)OC)C(C)(C)OC(C)(C)C1=O [Compound D-20],20%

# Tested on: Alopecurus myosuroides (ALOMY)
# Assay: as above
# Format: in vivo
# Settings: 312 h, rate 1000 g/ha, evaluated after 13 days, read-out: Post-emergence activity ALOMY (100=total damage to plant; 0=no damage to plant)
# Procedure, shortened: as §1
row,Compound,pest or weed control at 1000 g/ha
1,CCc1ccc(-c2ccc(Cl)cc2)cc1C1=C(OC(=O)OC)C(C)(C)OC(C)(C)C1=O [Compound D-16],90%
2,CCc1ccc(-c2ccc(Cl)cc2)cc1C1=C(OC(=O)OC(C)C)C(C)(C)OC(C)(C)C1=O [Compound D-17],60%
3,CCc1ccc(-c2ccc(Cl)cc2)cc1C1=C(OC(=O)C(C)OC)C(C)(C)OC(C)(C)C1=O [Compound D-19],90%
4,CCc1ccc(-c2ccc(Cl)cc2)cc1C1=C(OC(=O)C(C)(C)OC)C(C)(C)OC(C)(C)C1=O [Compound D-20],100%

# Tested on: Avena fatua (AVEFA)
# Assay: as above
# Format: in vivo
# Settings: 312 h, rate 1000 g/ha, evaluated after 13 days, read-out: Post-emergence activity AVEFA (100=total damage to plant; 0=no damage to plant)
# Procedure, shortened: as §1
row,Compound,pest or weed control at 1000 g/ha
1,CCc1ccc(-c2ccc(Cl)cc2)cc1C1=C(OC(=O)OC)C(C)(C)OC(C)(C)C1=O [Compound D-16],20%
2,CCc1ccc(-c2ccc(Cl)cc2)cc1C1=C(OC(=O)OC(C)C)C(C)(C)OC(C)(C)C1=O [Compound D-17],20%
3,CCc1ccc(-c2ccc(Cl)cc2)cc1C1=C(OC(=O)C(C)OC)C(C)(C)OC(C)(C)C1=O [Compound D-19],80%
4,CCc1ccc(-c2ccc(Cl)cc2)cc1C1=C(OC(=O)C(C)(C)OC)C(C)(C)OC(C)(C)C1=O [Compound D-20],90%

# Tested on: Setaria faberi (SETFA)
# Assay: as above
# Format: in vivo
# Settings: 312 h, rate 1000 g/ha, evaluated after 13 days, read-out: Post-emergence activity SETFA (100=total damage to plant; 0=no damage to plant)
# Procedure, shortened: as §1
row,Compound,pest or weed control at 1000 g/ha
1,CCc1ccc(-c2ccc(Cl)cc2)cc1C1=C(OC(=O)OC)C(C)(C)OC(C)(C)C1=O [Compound D-16],100%
2,CCc1ccc(-c2ccc(Cl)cc2)cc1C1=C(OC(=O)OC(C)C)C(C)(C)OC(C)(C)C1=O [Compound D-17],100%
3,CCc1ccc(-c2ccc(Cl)cc2)cc1C1=C(OC(=O)C(C)OC)C(C)(C)OC(C)(C)C1=O [Compound D-19],100%
4,CCc1ccc(-c2ccc(Cl)cc2)cc1C1=C(OC(=O)C(C)(C)OC)C(C)(C)OC(C)(C)C1=O [Compound D-20],100%

# Tested on: Echinochloa crus-galli (ECHCG)
# Assay: as above
# Format: in vivo
# Settings: 312 h, rate 1000 g/ha, evaluated after 13 days, read-out: Post-emergence activity ECHCG (100=total damage to plant; 0=no damage to plant)
# Procedure, shortened: as §1
row,Compound,pest or weed control at 1000 g/ha
1,CCc1ccc(-c2ccc(Cl)cc2)cc1C1=C(OC(=O)OC)C(C)(C)OC(C)(C)C1=O [Compound D-16],100%
2,CCc1ccc(-c2ccc(Cl)cc2)cc1C1=C(OC(=O)OC(C)C)C(C)(C)OC(C)(C)C1=O [Compound D-17],100%
3,CCc1ccc(-c2ccc(Cl)cc2)cc1C1=C(OC(=O)C(C)OC)C(C)(C)OC(C)(C)C1=O [Compound D-19],100%
4,CCc1ccc(-c2ccc(Cl)cc2)cc1C1=C(OC(=O)C(C)(C)OC)C(C)(C)OC(C)(C)C1=O [Compound D-20],100%
